In US20240158418A1 (C4 Therapeutics, Inc., priority 2021, published 2024):
Entries after “also recorded” stand apart in the source; their conditions may differ.

Legend:
[1] = target: T1, G1 to S Phase Transition 1 (GSPT1) (Homo sapiens, UniProt P15170); experiment: GSPT1 degradation, HiBiT-tagged GSPT1 in 293T cells; assay type: cell-based; conditions: 6 hours, up to 10 WV
T1 construct: Endogenous expression of GSPT1 in 293T cells was determined by addition of N-terminal HiBiT tag; host or cells: 293T (CRISPR-Cas9 HiBiT knock-in)
Protocol: Endogenous expression of GSPT1 in 293T cells was determined by addition of N-terminal HiBiT tag to the 293T cell line (ATCC CRL-3216) using CRISPR-Cas9. Briefly, test compound was added to 384-well plates at a top concentration of 10 μM with 11 points, half log titration in duplicates. 293T cells expressing HiBiT-tagged GSPT1 were seeded into the 384-well plates in DMEM medium containing 10% FBS at a cell density of 6000 cells per well. Cells treated in the absence of the test compound were the negative control and wells containing media only were the positive control. Following compound treatment, cells were incubated at 37° C. with 5% CO2 for 6 hr. HiBiT signal was determined using Nano-Glo™ HiBiT Lytic Assay System (Promega, N3050) and luminescence was acquired on EnVision™ Multilabel Reader (PerkinElmer, Santa Clara, CA, USA). % GSPT1 remaining was determined by normalizing the signal with positive and negative controls on the same microtiter plate. Data in FIG. 8 are expressed as the mean±SD. Curve fit and IC50 determination was performed by 4 parametric regression analysis.

[2] = system: intracranial NCI-H1975-luciferase expressing NSCLC tumors; experiment: NCI-H1975-luc intracranial tumor model (intracranial injection into forebrain); assay type: in vivo, female BALB/c nude mice; conditions: 100 mg/kg/day PO BID
Protocol: Compound 1 efficacy in a NCI-H1975-luciferase expressing intracranial tumor model established by injecting tumor cells intracranially into the mouse forebrain was evaluated at […]: 100 mg/kg/day. Compound 1 was administered BID (twice a day) orally (PO). Eight mice were used per group.
2×10^5 luciferase-expressing NCI-H1975-luc tumor cells suspended in 2 μL RPMI-1640 media were injected into the right forebrain of female BALB/c nude mice. Tumor growth was monitored using imaging analysis. Mice were injected intraperitoneally with 15 mg/mL of D-luciferin and anesthetized with 1-2% isoflurane inhalation. 10 minutes post luciferin injection, mice were imaged using IVIS Lumina III (Perkin Elmer) and total bioluminescence signal (BLI, photons/s) was measured in a region of interest (ROI). BLI from ROI were quantified and used as an indicator of tumor burden. 7 days post tumor cell inoculation mice were randomized into groups of 8 with a mean BLI of 27×10^6 photons/s. All agents were administered to mice bearing NCI-H1975-luc brain tumors on day 8. […] Body weight and MTV were measured on a 2× weekly schedule. Statistical analysis was calculated using the Mann-Whitney U test. Data are expressed as bioluminescent signal (photons/s).

EGFR L858R = EGFR L858R (Homo sapiens, UniProt P00533, L858R); experiment: KINOMEscan scanMAX, EGFR-L858R; assay type: binding; design: purchased Eurofins DiscoverX KINOMEscan scanMAX; host or cells: E. coli BL21-derived (T7 phage) or HEK-293; conditions: 100 nM
Protocol: Kinome-wide binding selectivity of CFT8919 was assessed via the KINOMEscan scanMAX assay at Eurofins DiscoverX (Freemont, CA, USA). Compound was tested at 100 nM against a diverse panel of 468 kinases. The size of circles was mapped onto the kinase phylogenetic tree utilizing DiscoverX TREEspot using <50% of % control as a cutoff.
For most assays, kinase-tagged T7 phage strains were grown in parallel in 24-well blocks in an E. coli host derived from the BL21 strain. E. coli were grown to log-phase and infected with T7 phage from a frozen stock (multiplicity of infection=0.4) and incubated with shaking at 32° C. until lysis (90-150 minutes). The lysates were centrifuged (6,000×g) and filtered (0.2 μm) to remove cell debris. The remaining kinases were produced in HEK-293 cells and subsequently tagged with DNA for qPCR detection. Streptavidin-coated magnetic beads were treated with biotinylated small molecule ligands for 30 minutes at room temperature to generate affinity resins for kinase assays. The liganded beads were blocked with excess biotin and washed with blocking buffer (SeaBlock (Pierce), 1% BSA, 0.05% Tween 20, 1 mM DTT) to remove unbound ligand and to reduce non-specific phage binding. […] Test compounds were prepared as 40× stocks in 100% DMSO and directly diluted into the assay. […] The kinase concentration in the eluates was measured by qPCR.

pERK = experiment: Western blot NCI-H3255, Compound 1 with or without osimertinib: phospho-ERK; assay type: cell-based, human; conditions: NCI-H3255, six hours, 0-1,500 nM, presence and absence of 1,500 nM osimertinib
Excerpt: The compound bearing solutions were formulated to achieve a 0.1% final concentration of DMSO. […] Antibodies used in western blot were purchased from the following vendors: EGFR-L858R specific antibody (CST 3197), pY1068 EGFR (CST 2234), pERK (CST 4370), ERK (CST 4695), vinculin (Millipore 05-386).

T1 sequence (Q96SW2 whole entry partner): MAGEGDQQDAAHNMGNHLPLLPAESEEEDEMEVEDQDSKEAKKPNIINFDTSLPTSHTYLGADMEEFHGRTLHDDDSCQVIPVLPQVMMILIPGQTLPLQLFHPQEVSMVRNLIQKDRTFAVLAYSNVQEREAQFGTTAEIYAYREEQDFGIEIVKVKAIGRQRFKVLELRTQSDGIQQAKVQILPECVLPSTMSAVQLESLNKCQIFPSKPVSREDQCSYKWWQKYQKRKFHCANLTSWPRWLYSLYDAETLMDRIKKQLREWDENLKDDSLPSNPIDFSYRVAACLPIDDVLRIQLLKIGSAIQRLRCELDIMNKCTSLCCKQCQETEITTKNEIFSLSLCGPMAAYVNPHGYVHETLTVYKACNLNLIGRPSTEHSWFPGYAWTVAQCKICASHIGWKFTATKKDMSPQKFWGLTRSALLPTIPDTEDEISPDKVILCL
T1 sequence (Q16531 whole entry partner): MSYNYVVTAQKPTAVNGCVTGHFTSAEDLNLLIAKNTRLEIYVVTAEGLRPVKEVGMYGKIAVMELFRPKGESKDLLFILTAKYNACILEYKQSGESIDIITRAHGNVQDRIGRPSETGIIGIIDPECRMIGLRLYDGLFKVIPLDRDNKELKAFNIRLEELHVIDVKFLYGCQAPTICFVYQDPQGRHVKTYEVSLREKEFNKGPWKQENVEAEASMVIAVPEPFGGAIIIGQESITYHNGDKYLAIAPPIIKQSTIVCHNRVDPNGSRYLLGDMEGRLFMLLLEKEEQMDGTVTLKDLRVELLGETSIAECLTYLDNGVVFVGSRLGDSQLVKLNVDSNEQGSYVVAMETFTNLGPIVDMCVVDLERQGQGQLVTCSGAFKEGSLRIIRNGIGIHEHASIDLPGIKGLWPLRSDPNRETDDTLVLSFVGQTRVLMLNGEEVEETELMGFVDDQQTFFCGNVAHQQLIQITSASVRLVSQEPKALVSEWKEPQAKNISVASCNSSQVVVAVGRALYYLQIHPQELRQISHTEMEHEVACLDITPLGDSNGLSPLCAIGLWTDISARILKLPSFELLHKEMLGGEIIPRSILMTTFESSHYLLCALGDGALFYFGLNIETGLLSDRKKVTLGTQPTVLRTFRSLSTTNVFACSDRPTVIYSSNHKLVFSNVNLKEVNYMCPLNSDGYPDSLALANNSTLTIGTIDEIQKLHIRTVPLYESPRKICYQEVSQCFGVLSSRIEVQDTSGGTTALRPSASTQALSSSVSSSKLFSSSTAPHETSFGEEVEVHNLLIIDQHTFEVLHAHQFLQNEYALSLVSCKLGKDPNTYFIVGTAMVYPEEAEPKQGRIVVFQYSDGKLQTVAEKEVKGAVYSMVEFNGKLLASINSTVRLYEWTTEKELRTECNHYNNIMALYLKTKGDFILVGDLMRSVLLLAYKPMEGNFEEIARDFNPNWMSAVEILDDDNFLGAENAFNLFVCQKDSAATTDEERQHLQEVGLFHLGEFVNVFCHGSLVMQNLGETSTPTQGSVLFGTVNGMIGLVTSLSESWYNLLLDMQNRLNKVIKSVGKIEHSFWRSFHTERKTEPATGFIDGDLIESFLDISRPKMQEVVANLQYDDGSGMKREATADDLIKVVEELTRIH
T1 sequence (P15170 whole entry): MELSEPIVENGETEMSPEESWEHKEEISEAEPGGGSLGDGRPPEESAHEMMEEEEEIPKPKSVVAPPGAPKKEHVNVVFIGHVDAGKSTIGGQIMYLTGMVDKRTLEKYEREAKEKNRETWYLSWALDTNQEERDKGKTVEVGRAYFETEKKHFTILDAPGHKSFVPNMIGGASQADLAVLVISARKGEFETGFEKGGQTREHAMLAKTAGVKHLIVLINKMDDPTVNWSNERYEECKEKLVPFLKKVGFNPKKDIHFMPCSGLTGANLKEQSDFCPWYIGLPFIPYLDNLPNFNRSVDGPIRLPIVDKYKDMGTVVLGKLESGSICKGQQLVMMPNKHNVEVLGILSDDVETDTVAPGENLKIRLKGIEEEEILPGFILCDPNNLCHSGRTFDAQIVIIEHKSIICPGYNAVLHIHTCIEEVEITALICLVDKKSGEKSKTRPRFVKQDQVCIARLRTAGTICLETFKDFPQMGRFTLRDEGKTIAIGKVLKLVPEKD
Sequence of EGFR L858R (P00533 25-1210 L858R): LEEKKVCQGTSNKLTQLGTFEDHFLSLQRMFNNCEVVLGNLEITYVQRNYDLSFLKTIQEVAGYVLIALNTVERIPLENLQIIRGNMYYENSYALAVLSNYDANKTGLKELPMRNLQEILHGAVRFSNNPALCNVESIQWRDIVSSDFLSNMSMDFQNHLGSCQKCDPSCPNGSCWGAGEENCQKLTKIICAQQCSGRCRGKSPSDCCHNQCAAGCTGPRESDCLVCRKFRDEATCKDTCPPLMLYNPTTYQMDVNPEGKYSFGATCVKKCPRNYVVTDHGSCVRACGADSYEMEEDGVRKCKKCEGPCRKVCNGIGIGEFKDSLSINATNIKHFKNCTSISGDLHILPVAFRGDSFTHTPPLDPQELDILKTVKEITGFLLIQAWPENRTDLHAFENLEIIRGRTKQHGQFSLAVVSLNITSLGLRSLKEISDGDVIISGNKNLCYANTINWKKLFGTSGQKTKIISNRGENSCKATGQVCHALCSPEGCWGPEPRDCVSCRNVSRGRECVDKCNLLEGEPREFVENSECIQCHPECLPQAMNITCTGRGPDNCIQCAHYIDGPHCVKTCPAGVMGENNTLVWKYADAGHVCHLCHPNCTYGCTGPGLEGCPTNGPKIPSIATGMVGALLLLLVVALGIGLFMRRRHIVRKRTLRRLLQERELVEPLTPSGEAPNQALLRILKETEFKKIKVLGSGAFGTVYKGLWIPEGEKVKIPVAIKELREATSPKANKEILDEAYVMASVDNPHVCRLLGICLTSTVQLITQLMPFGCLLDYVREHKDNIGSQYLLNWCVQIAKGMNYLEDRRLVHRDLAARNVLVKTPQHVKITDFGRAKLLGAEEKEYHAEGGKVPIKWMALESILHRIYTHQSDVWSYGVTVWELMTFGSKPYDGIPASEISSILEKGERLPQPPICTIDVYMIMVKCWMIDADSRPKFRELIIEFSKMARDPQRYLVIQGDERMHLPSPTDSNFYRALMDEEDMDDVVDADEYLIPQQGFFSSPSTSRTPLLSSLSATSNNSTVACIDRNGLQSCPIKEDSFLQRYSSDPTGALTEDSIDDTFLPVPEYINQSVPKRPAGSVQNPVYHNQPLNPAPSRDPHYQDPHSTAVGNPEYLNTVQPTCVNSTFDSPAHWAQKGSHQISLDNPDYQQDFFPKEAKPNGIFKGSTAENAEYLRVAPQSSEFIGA

O=C1CC[C@H](Nc2ccc(N3CCC(O)(CC(=O)N4CC5(C4)CN(c4ccc(-c6cc(F)c7c(c6)C(=O)N(C(C(=O)Nc6nccs6)c6ncn8c6CCC8)C7)cc4)C5)CC3)c(F)c2)C(=O)N1 (stereo partly drawn) [Compound 1, 2-(6,7-dihydro-5H-pyrrolo[1,2-c]imidazol-1-yl)-2-[6-[4-[2-[2-[1-[4-[[(3S)-2,6-dioxo-3-piperidyl]amino]-2-fluoro-phenyl]-4-hydroxy-4-piperidyl]acetyl]-2,6-diazaspiro[3.3]heptan-6-yl]phenyl]-4-fluoro-1-oxo-isoindolin-2-yl]-N-thiazol-2-yl-acetamide]
GSPT1 degradation (% GSPT1 remaining) [1]: no significant effect | Statistical Significance Compared to Vehicle ([2]; NCI-H1975-luc cells intracranial): 0.001 | efficacy on NCI-H1975-luc BLI (tumor burden) ([2]; intracranial forebrain model, 100 mg/kg/day): reduced tumor volume; also recorded: tumor regression | percent binding remaining (EGFR L858R): < 50% | phospho-ERK inhibition (western blot) (pERK): inhibited
